Measurements reported in patent US20120058989A1, “ANTIBACTERIAL FLUOROQUINOLONE ANALOGS” (Achaogen, Inc., priority 2008, published 2012).

Assays:
Assay in all cases: MIC, CLSI broth microdilution
Assay type in all cases: cell-based
[1] = system: A. baumannii AABA1065 (Fluoroquinolone-susceptible)
Procedure, shortened: (§1)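 Broth microdilution per CLSI M7-A7, with serial two-fold compound dilutions in Mueller Hinton Broth mixed 1:1 with inoculum. Colonies from a previous-day agar plate were suspended in saline to a final 5×10^5 CFU/mL. Plates were incubated 20 hours at 35° C. in ambient air.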

[2] = system: E. coli AECO086 (Fluoroquinolone-resistant); conditions: Table 3
Procedure, shortened: as §1

[3] = system: S. pneumoniae ASPN1018 (Fluoroquinolone-resistant); conditions: Table 3
Procedure, shortened: as §1

[4] = system: S. aureus ASAU002 (Fluoroquinolone-susceptible, ATCC33591 (MRSA)); conditions: Table 3
Procedure, shortened: as §1

[5] = system: S. pneumoniae ASPN1027 (Fluoroquinolone-resistant)
Procedure, shortened: as §1

[6] = system: E. coli AECO066 (Fluoroquinolone-resistant)
Procedure, shortened: as §1

[7] = system: P. aeruginosa APAE001 (Fluoroquinolone-susceptible, ATCC27853)
Procedure, shortened: as §1

[8] = system: A. baumannii AABA1020 (Fluoroquinolone-resistant); conditions: Table 3
Procedure, shortened: as §1

[9] = system: P. aeruginosa APAE002 (Fluoroquinolone susceptible); conditions: Table 3
Procedure, shortened: as §1

[10] = system: E. coli AECO002 (Fluoroquinolone susceptible); conditions: Table 3
Procedure, shortened: as §1

[11] = system: E. coli AECO001 (Fluoroquinolone susceptible, ATCC25922)
Procedure, shortened: as §1

[12] = system: S. aureus ASAU1031 (Fluoroquinolone-resistant)
Procedure, shortened: as §1

[13] = system: P. aeruginosa APAE054 (Fluoroquinolone-resistant)
Procedure, shortened: as §1

[14] = system: S. pneumoniae ASPN001 (Fluoroquinolone-susceptible, ATCC49619)
Procedure, shortened: as §1

[15] = system: A. baumannii AABA1009 (Fluoroquinolone-resistant); conditions: Table 2
Procedure, shortened: as §1

[16] = system: S. aureus ASAU1033 (Fluoroquinolone-resistant); conditions: Table 3
Procedure, shortened: as §1

[17] = system: S. aureus ASAU001 (Fluoroquinolone-susceptible, ATCC29213)
Procedure, shortened: as §1

[18] = system: S. pneumoniae ASPN002 (Fluoroquinolone-susceptible, ATCC10813); conditions: Table 3
Procedure, shortened: as §1

MIC AABA 1065 ([1]; Table 2) | MIC AABA 1065 ([1]; Table 3) | MIC AECO086 [2] | MIC ASPN1018 [3] | MIC ASAU002 [4] | MIC ASPN 1027 ([5]; Table 3) | MIC AECO 066 ([6]; Table 2) | MIC AECO 066 ([6]; Table 3) | MIC APAE 001 ([7]; Table 2) | MIC APAE 001 ([7]; Table 3) | MIC AABA1020 [8] | MIC APAE002 [9] | MIC AECO002 [10] | MIC AECO 001 ([11]; Table 2, 35° C., 20 hours) | MIC AECO 001 ([11]; Table 3) | MIC ASAU 1031 ([12]; Table 2) | MIC ASAU 1031 ([12]; Table 3) | MIC APAE 054 ([13]; Table 2) | MIC APAE 054 ([13]; Table 3) | SMILES | MIC ASPN 1027 ([5]; Table 2) | other results
C (MIC's of greater than 8.0 μg/mL = C) | D (MIC's of greater than 8.0 μg/mL = D) | D (MIC's of greater than 8.0 μg/mL = D) | C (MIC's of 2.0 μg/mL to 8.0 μg/mL = C) | C (MIC's of 2.0 μg/mL to 8.0 μg/mL = C) | D (MIC's of greater than 8.0 μg/mL = D) | C (MIC's of greater than 8.0 μg/mL = C) | D (MIC's of greater than 8.0 μg/mL = D) | C (MIC's of greater than 8.0 μg/mL = C) | D (MIC's of greater than 8.0 μg/mL = D) | D (MIC's of greater than 8.0 μg/mL = D) | D (MIC's of greater than 8.0 μg/mL = D) | D (MIC's of greater than 8.0 μg/mL = D) | C (MIC's of greater than 8.0 μg/mL = C) | D (MIC's of greater than 8.0 μg/mL = D) | C (MIC's of greater than 8.0 μg/mL = C) | D (MIC's of greater than 8.0 μg/mL = D) | C (MIC's of greater than 8.0 μg/mL = C) | D (MIC's of greater than 8.0 μg/mL = D) | N[C@@H]1C[C@@H]2CCCc3c(c(F)cc4c(=O)c(C(=O)O)cn(C5CC5)c34)N2C1.O=C(O)C(F)(F)F [7E/49, (7aS,9R)-9-Amino-4-cyclopropyl-12-fluoro-1-oxo-4,5,6,7,7a,8,9,10-octahydro-1H-pyrrolo[1′,2′:1,7]-azepino[2,3-h]quinoline-2-carboxylic acid trifluoroacetate] | C (MIC's of greater than 8.0 μg/mL = C) | MIC ASPN 001 ([14]; Table 2): C (MIC's of greater than 8.0 μg/mL = C); MIC ASPN 001 ([14]; Table 3): D (MIC's of greater than 8.0 μg/mL = D); MIC AABA 1009 [15]: C (MIC's of greater than 8.0 μg/mL = C); MIC ASAU1033 [16]: D (MIC's of greater than 8.0 μg/mL = D); MIC ASAU 001 ([17]; Table 2): B (MIC's of greater than 1.0 μg/mL to 8.0 μg/mL = B); MIC ASAU 001 ([17]; Table 3): C (MIC's of 2.0 μg/mL to 8.0 μg/mL = C); MIC ASPN002 [18]: D (MIC's of greater than 8.0 μg/mL = D)

SMILES | MIC AABA 1065 ([1]; Table 2) | MIC AABA 1065 ([1]; Table 3) | MIC AECO086 [2] | MIC ASPN1018 [3] | MIC ASAU002 [4] | MIC ASPN 1027 ([5]; Table 3) | MIC AECO 066 ([6]; Table 2) | MIC AECO 066 ([6]; Table 3) | MIC APAE 001 ([7]; Table 2) | MIC APAE 001 ([7]; Table 3) | MIC AABA1020 [8] | MIC APAE002 [9] | MIC AECO002 [10] | MIC AECO 001 ([11]; Table 2, 35° C., 20 hours) | MIC AECO 001 ([11]; Table 3) | MIC ASAU 1031 ([12]; Table 2) | MIC ASAU 1031 ([12]; Table 3) | MIC APAE 054 ([13]; Table 2) | MIC APAE 054 ([13]; Table 3) | MIC ASPN 1027 ([5]; Table 2) | other results
N[C@@H]1C[C@H]2CC=Cc3c(c(F)cc4c(=O)c(C(=O)O)cn(C5CC5)c34)N2C1.O=C(O)C(F)(F)F [7D/40, (7aR,9R)-9-Amino-4-cyclopropyl-12-fluoro-1-oxo-4,7,7a,8,9,10-hexahydro-1H-pyrrolo[1′,2′:1,7]-azepino[2,3-h]quinoline-2-carboxylic acid trifluoroacetate] | A (MIC's of 1.0 μg/mL or less = A) | A (MIC's of less than 1.0 = A) | D (MIC's of greater than 8.0 μg/mL = D) | D (MIC's of greater than 8.0 μg/mL = D) | A (MIC's of less than 1.0 = A) | D (MIC's of greater than 8.0 μg/mL = D) | C (MIC's of greater than 8.0 μg/mL = C) | D (MIC's of greater than 8.0 μg/mL = D) | B (MIC's of greater than 1.0 μg/mL to 8.0 μg/mL = B) | B (MIC's of 1.0 μg/mL to 2.0 μg/mL = B) | D (MIC's of greater than 8.0 μg/mL = D) | B (MIC's of 1.0 μg/mL to 2.0 μg/mL = B) | A (MIC's of less than 1.0 = A) | A (MIC's of 1.0 μg/mL or less = A) | A (MIC's of less than 1.0 = A) | C (MIC's of greater than 8.0 μg/mL = C) | D (MIC's of greater than 8.0 μg/mL = D) | C (MIC's of greater than 8.0 μg/mL = C) | D (MIC's of greater than 8.0 μg/mL = D) | C (MIC's of greater than 8.0 μg/mL = C) | MIC ASPN 001 ([14]; Table 2): B (MIC's of greater than 1.0 μg/mL to 8.0 μg/mL = B); MIC ASPN 001 ([14]; Table 3): B (MIC's of 1.0 μg/mL to 2.0 μg/mL = B); MIC AABA 1009 [15]: C (MIC's of greater than 8.0 μg/mL = C); MIC ASAU1033 [16]: D (MIC's of greater than 8.0 μg/mL = D); MIC ASAU 001 ([17]; Table 2): A (MIC's of 1.0 μg/mL or less = A); MIC ASAU 001 ([17]; Table 3): A (MIC's of less than 1.0 = A); MIC ASPN002 [18]: B (MIC's of 1.0 μg/mL to 2.0 μg/mL = B)
NC1CC2CC=Cc3c(c(F)cc4c(=O)c(C(=O)O)cn(C5CC5)c34)N2C1.O=C(O)C(F)(F)F [7C/30, (7aS,9S)-9-Amino-4-cyclopropyl-12-fluoro-1-oxo-4,7,7a,8,9,10-hexahydro-1H-pyrrolo[1′,2′:1,7]azepino-[2,3-h]quinoline-2-carboxylic acid trifluoroacetate] | B (MIC's of greater than 1.0 μg/mL to 8.0 μg/mL = B) | C (MIC's of 2.0 μg/mL to 8.0 μg/mL = C) | D (MIC's of greater than 8.0 μg/mL = D) | C (MIC's of 2.0 μg/mL to 8.0 μg/mL = C) | B (MIC's of 1.0 μg/mL to 2.0 μg/mL = B) | C (MIC's of 2.0 μg/mL to 8.0 μg/mL = C) | C (MIC's of greater than 8.0 μg/mL = C) | D (MIC's of greater than 8.0 μg/mL = D) | C (MIC's of greater than 8.0 μg/mL = C) | D (MIC's of greater than 8.0 μg/mL = D) | D (MIC's of greater than 8.0 μg/mL = D) | D (MIC's of greater than 8.0 μg/mL = D) | B (MIC's of 1.0 μg/mL to 2.0 μg/mL = B) | B (MIC's of greater than 1.0 μg/mL to 8.0 μg/mL = B) | B (MIC's of 1.0 μg/mL to 2.0 μg/mL = B) | C (MIC's of greater than 8.0 μg/mL = C) | D (MIC's of greater than 8.0 μg/mL = D) | C (MIC's of greater than 8.0 μg/mL = C) | D (MIC's of greater than 8.0 μg/mL = D) | B (MIC's of greater than 1.0 μg/mL to 8.0 μg/mL = B) | MIC ASPN 001 ([14]; Table 2): B (MIC's of greater than 1.0 μg/mL to 8.0 μg/mL = B); MIC ASPN 001 ([14]; Table 3): C (MIC's of 2.0 μg/mL to 8.0 μg/mL = C); MIC AABA 1009 [15]: C (MIC's of greater than 8.0 μg/mL = C); MIC ASAU1033 [16]: D (MIC's of greater than 8.0 μg/mL = D); MIC ASAU 001 ([17]; Table 2): B (MIC's of greater than 1.0 μg/mL to 8.0 μg/mL = B); MIC ASAU 001 ([17]; Table 3): B (MIC's of 1.0 μg/mL to 2.0 μg/mL = B); MIC ASPN002 [18]: C (MIC's of 2.0 μg/mL to 8.0 μg/mL = C)
N[C@H]1C[C@H]2CC=Cc3c(c(F)cc4c(=O)c(C(=O)O)cn(C5CC5)c34)N2C1.O=C(O)C(F)(F)F [7B/18, (7aR,9S)-9-Amino-4-cyclopropyl-12-fluoro-1-oxo-4,7,7a,8,9,10-hexahydro-1H-pyrrolo[1′,2′:1,7]azepino[2,3h]-quinoline-2-carboxylic acid trifluoroacetate] | A (MIC's of 1.0 μg/mL or less = A) | A (MIC's of less than 1.0 = A) | C (MIC's of 2.0 μg/mL to 8.0 μg/mL = C) | B (MIC's of 1.0 μg/mL to 2.0 μg/mL = B) | A (MIC's of less than 1.0 = A) | C (MIC's of 2.0 μg/mL to 8.0 μg/mL = C) | B (MIC's of greater than 1.0 μg/mL to 8.0 μg/mL = B) | C (MIC's of 2.0 μg/mL to 8.0 μg/mL = C) | A (MIC's of 1.0 μg/mL or less = A) | A (MIC's of less than 1.0 = A) | C (MIC's of 2.0 μg/mL to 8.0 μg/mL = C) | A (MIC's of less than 1.0 = A) | A (MIC's of less than 1.0 = A) | A (MIC's of 1.0 μg/mL or less = A) | A (MIC's of less than 1.0 = A) | B (MIC's of greater than 1.0 μg/mL to 8.0 μg/mL = B) | C (MIC's of 2.0 μg/mL to 8.0 μg/mL = C) | C (MIC's of greater than 8.0 μg/mL = C) | D (MIC's of greater than 8.0 μg/mL = D) | B (MIC's of greater than 1.0 μg/mL to 8.0 μg/mL = B) | MIC ASPN 001 ([14]; Table 2): A (MIC's of 1.0 μg/mL or less = A); MIC ASPN 001 ([14]; Table 3): A (MIC's of less than 1.0 = A); MIC AABA 1009 [15]: C (MIC's of greater than 8.0 μg/mL = C); MIC ASAU1033 [16]: D (MIC's of greater than 8.0 μg/mL = D); MIC ASAU 001 ([17]; Table 2): A (MIC's of 1.0 μg/mL or less = A); MIC ASAU 001 ([17]; Table 3): A (MIC's of less than 1.0 = A); MIC ASPN002 [18]: A (MIC's of less than 1.0 = A)
